One data set in a line: solubility (observation). Format: physicochemical.
A further data set relates to K562 cells. Put plainly: Alamar blue proliferation assay of liposomal WBZ—1 formulations. The format is cell-based. The settings on record: calculated from previous experiments with a similar system. On the procedure:
FIG. 12. K562 cells derived from chronic myeloid leukemia (CML) tumors and treated with WBZ—1 liposomal formulation using drug:lipid ratio 1:10. Cells were plated in a 96 well plate at a concentration of 10,000 cells per well and were treated 2 hours later. After 48 hours incubation, an Alamar blue assay was performed. Cells proliferation was expressed as the percentage of proliferating cells compared to the untreated. […] (*) This concentration is the maximum uptake that was calculated based on previous work using a similar system (Tari, 1996). The actual cellular uptake can be considerable lower, even 10^−3 times the effective concentration. The inventors can determine the exact uptake in future experiments using a radiolabeled lipid and prototype compound.
This modification should lead to a selective inhibition of the Bcr-Abl kinase, and indeed it does. […] In order to determine the best lipid formulation to be used, the inventors tested different WBZ—1:MDPC ratios. […] Cell proliferation inhibition was determined by Alamar blue assay after 48 hours of incubation and calculated as percentage of inhibition comparing with the untreated control. All formulations were nontoxic for the cells and a dose response curve was observed. The effective concentration ranges between 0.1 and 1 μM regardless of the lipid:drug ratio used. […]

Another data set deals with ERK1/2. Put plainly: Western blot of phosphorylated kinases in neonatal rat ventricular myocytes (NRVM). The format is cell-based. The settings on record: 1-50 μM, 24 h, compared to untreated cultures. On the procedure: This protective role of WBZ—4 has also been validated in vivo. Animals used in these studies were handled in accordance with National Institutes of Health “Guide for the Care and Use of Laboratory Animals” [Department of Health and Human Services Publication No. (NIH) 85-23, Revised 1985]. […] NRVM were isolated from the hearts of 2 day-old Sprague-Dawley rat pups via collagenase digestion as previously described (Samarel and Engelmann, 1991). Dissociated cells were pre-plated for 1 hour in serum-free PC-1 medium to selectively remove nonmuscle cells. Myocytes were then plated in PC-1 medium at a density of 1600 cells per mm^2 onto collagen-coated, plastic 35-mm dishes, and left undisturbed in a 5% CO2 incubator for 24 h. Unattached cells were removed by aspiration, and the attached cells were maintained in a solution of DMEM/Medium 199 (4:1) containing antibiotic/antimycotic solution for 24 h. […] NRVM were homogenized in lysis buffer (Schlaepfer and Hunter, 1996). Equal amounts of extracted proteins were separated on 10% SDS-polyacrylamide gels with 5% stacking gels. […] Primary antibody binding was detected with horseradish-peroxidase conjugated goat anti-mouse or goat anti-rabbit secondary antibody, and visualized by enhanced chemiluminescence.

Data set [1] concerns brain natriuretic peptide (BNP). Put plainly: RT-PCR of BNP mRNA in left ventricle of treated mice. Conditions: GIST model mice after therapy.
For a further data set, the system named is JNK1/2. Put plainly: Western blot of phosphorylated kinases in neonatal rat ventricular myocytes (NRVM). The format is cell-based. The settings on record: 1-50 μM, 24 h, compared to untreated cells.
Another data set has as its target T1, C-Kit (Homo sapiens, UniProt P10721, K642E).
T1 construct: endogenous in cells; host or cells: ST882 (GIST882) cells
The data set can be described thus: Western blot of C-Kit phosphorylation (Tyr703, Tyr721) in ST882 cells. The settings on record: 6 hours, read-out: inhibitory impact on C-Kit phosphorylation in GIST cells. Format: cell-based. On the procedure:
A Western blot assay on treated cancer-derived cell lines (FIGS. 8C and 8D) was performed to determine the in-cell specificity of WBZ—4. […] After allowing the cells to attach for 24 hours, the cells were treated with 1 μM of WBZ—4 or Gleevec for 6 hours. For Western blotting, 50 μg of total protein were separated on a SDS-PAGE (Bio-Rad) and blotted onto nitrocellulose membranes (Bio-Rad Laboratories, Life Science Research, Hercules, Calif.). Antibodies used: anti phospho-c-Kit polyclonal antibody, Tyr703 and Tyr721 (Zymed Laboratories Inc., South San Francisco, Calif.), anti-c-Kit monoclonal antibody (E-1): sc-17806 (Santa Cruz Biotechnology) and anti β-actin monoclonal antibody (Sigma, St. Louis, Mo.). K562 cells were plated at 5×10^5 cells/well. […] Antibodies used: anti phospho-c-Abl (Tyr 412) monoclonal antibody 247C7 (Cell Signalling Technology Inc), anti-Abl monoclonal antibody (Sigma, St. Louis, Mo.).

A further data set addresses T2, Chk1 (Homo sapiens, UniProt O14757).
T2 sequence (O14757 1-476): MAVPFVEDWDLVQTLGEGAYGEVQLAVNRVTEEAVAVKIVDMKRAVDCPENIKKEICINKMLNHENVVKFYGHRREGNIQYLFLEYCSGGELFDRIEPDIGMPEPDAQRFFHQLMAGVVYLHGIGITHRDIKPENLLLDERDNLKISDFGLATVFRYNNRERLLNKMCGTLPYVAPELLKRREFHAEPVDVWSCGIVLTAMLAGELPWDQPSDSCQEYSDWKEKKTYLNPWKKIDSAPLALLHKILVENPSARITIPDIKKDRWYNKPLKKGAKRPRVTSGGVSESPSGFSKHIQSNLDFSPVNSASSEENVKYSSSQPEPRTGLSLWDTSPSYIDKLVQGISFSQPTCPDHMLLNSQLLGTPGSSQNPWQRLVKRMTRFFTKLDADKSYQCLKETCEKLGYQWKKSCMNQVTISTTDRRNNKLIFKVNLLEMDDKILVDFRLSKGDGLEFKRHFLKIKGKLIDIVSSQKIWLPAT
Put plainly: kinetic spectrophotometric assay of phosphorylation rate. Format: biochemical. An excerpt: (§1) To assess the specificity and affinity for Src, the staurosporine derivative is compared with the parental compound. […] Kinetic spectrophotometric assays where performed as indicated above. These assays were geared at measuring the phosphorylation rate of peptide substrates in the presence of the kinase inhibitor at different concentrations.

In the next data set the test system is Src kinase. The data set is described as above. The format is biochemical.
From the text: as §1

The next data set concerns the target T3, PDK1 (Homo sapiens, UniProt O15530).
T3 sequence (O15530 1-556): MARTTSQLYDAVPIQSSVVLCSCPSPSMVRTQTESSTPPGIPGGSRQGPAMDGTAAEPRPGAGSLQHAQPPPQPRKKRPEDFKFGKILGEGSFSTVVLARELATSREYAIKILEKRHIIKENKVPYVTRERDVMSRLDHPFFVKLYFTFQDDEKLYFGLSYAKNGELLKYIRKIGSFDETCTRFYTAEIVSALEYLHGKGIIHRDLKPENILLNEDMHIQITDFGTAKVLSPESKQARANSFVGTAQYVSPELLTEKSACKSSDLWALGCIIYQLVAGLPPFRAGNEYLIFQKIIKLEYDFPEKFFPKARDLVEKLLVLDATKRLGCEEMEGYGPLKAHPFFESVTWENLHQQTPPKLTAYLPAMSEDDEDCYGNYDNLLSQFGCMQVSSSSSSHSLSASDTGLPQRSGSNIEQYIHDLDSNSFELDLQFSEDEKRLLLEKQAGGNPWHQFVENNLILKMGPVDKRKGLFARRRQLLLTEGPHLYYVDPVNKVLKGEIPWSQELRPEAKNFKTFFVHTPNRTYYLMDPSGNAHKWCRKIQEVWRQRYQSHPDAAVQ
The description is as above. Format: biochemical.
From the text: as §1

In the case of `Cc1ccc(NC(=O)c2ccc(CN3CCN(C)CC3)cc2)cc1Nc1nccc(-c2cnccc2C)n1` [WBZ—1, N-{5-[4-(4-methylpiperazinemethyl)-benzoylamido]-2-methylphenyl}-4-[3-(4-methyl)-pyridyl]-2-pyrimidine amine], the solubility entry in “solubility (observation)” is listed as “insolubility”. In addition, the “uptake of WBZ—1 after 48 hours” value in the data set with K562 cells was 72 pmol.

Take `Cc1ccc(NC(=O)c2ccc(CN3CCN(C)CC3)cc2)cc1Nc1nccc(-c2cccnc2)n1` [imatinib, reference compound]: the “phosphorylation state of ERK1/2 in cardiomyocytes” value with ERK1/2 is “increased”. Further, the “BNP mRNA levels in the left ventricle, higher than untreated” value in [1] is recorded as “about 58%”. Also, the “JNK1/2 activation in cardiomyocytes” value in the data set with JNK1/2 is recorded as “activates JNKs”. For the same molecule, on C-Kit, the inhibition at 1 µM is about 85%.

On to `CN[C@@H]1C[C@H]2O[C@@](C)([C@@H]1OC)n1c3ccccc3c3c4c(c5c6ccccc6n2c5c31)C(=O)N(C)C4` [methylated staurosporine derivative], for which, at Chk1, the “inhibitory impact against Chk1” value is given as “very low inhibitory impact”. The “inhibition of Src compared with staurosporine levels” value in the data set with Src kinase is recorded as “improved”. Moreover, at PDK1, the “inhibitory impact against PDK1” value is reported as “very low inhibitory impact”.

Source of the values: patent US8466154B2, “Methods and compositions related to wrapping of dehydrons” (The Board of Regents of the University of Texas System, priority 2006, dated 2013).
